We go through ten compounds from patent EP1048652A1, “AROMATIC COMPOUNDS HAVING CYCLIC AMINO OR SALTS THEREOF” (MOCHIDA PHARMACEUTICAL CO., LTD., priority 1997, dated 1999).

A word on the IC50: it is the point on the concentration scale where inhibition reaches its midpoint. A low value points to greater potency.

The target of one test is T1, Human FXa (Homo sapiens, UniProt P00742).
T1 construct: purchased Enzyme Research Laboratories, Inc
T1 sequence (P00742 235-488 limits assumed): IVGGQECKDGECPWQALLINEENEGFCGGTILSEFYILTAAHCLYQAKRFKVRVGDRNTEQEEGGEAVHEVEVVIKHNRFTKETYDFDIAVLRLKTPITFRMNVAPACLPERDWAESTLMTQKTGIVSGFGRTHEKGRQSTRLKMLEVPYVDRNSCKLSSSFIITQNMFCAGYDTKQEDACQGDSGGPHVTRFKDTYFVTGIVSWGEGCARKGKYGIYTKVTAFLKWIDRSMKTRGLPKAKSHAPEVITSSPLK
T1 sequence (P00742 41-179 partner limits assumed): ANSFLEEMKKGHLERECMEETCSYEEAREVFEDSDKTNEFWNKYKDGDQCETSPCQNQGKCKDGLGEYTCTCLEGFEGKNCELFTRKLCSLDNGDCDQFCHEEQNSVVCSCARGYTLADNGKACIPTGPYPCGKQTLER
Put plainly: Measuring human FXa inhibitory action (chromogenic substrate S-2222). The note with it: Human FXa 0.019 U/ml, S-2222 0.4 mM, Tris-HCl buffer (pH 7.5), 37 °C, absorbance at 405 nm. It is filed as biochemical. On the procedure:
The outstanding FXa inhibitory activity of the compounds of the present invention can be verified by the following tests. 1) Measurement of Enzyme Inhibitory Action a) Measuring human FXa inhibitory action In vitro FXa inhibitory activity is measured in accordance with the method of Kettner et al., J. Biol. Chem., 1990, 265, 18289-18297. Human FXa (Enzyme Research Laboratories, Inc., 0.019 U/ml) is mixed with a test compound diluted with dimethyl sulfoxide (DMSO) at various concentrations and a synthesis substrate S-2222 (Chromogenix AB, 0.4 mM) and incubated in a Tris-HCl buffer (pH 7.5) at 37 °C while the absorbance at 405 nm is measured continuously. To calculate the FXa inhibitory activity of the test cmpound, the initial reaction velocity is compared with the value for a control containing no test compound. The FXa inhibitory activity of a test compound is usually expressed as IC50. The compounds of the present invention were measured for their FXa inhibitory activity by the above-described method and they had potencies between 1 nM and 1µm in terms of IC50. […]
The compound `NCC1CN(S(=O)(=O)c2ccc3cc(Cl)ccc3c2)CC(=O)N1CC1CCN(c2ccncc2)CC1` (stereo not drawn) [Example 52, 6-aminomethyl-4-(6-chloronaphthalen-2-ylsulfonyl)-1-[1-(4-pyridyl)piperidin-4-ylmethyl]piperazin-2-one] registered an IC50 of 12 nM.
Take `CCOC(=O)C1CN(S(=O)(=O)c2ccc3cc(Cl)ccc3c2)CC(=O)N1CC1CCN(c2ccncc2)CC1` (stereo not drawn) [Example 39, 4-(6-chloronaphthalen-2-ylsulfonyl)-6-ethoxycarbonyl-1-[1-(4-pyridyl)piperidin-4-ylmethyl]piperazin-2-one]: 19 nM corresponded to half-maximal inhibition (IC50).
In turn, `CC(=O)NCC1CN(S(=O)(=O)c2ccc3cc(Cl)ccc3c2)CC(=O)N1CC1CCN(c2ccncc2)CC1` (stereo not drawn) [Example 55, 6-acetamidomethyl-4-(6-chloronaphthalen-2-ylsulfonyl)-1-[1-(4-pyridyl)piperidin-4-ylmethyl]piperazin-2-one] came in with an IC50 of 7.4 nM.
As for `O=C(O)C1CN(S(=O)(=O)c2ccc3cc(Cl)ccc3c2)CC(=O)N1CC1CCN(c2ccncc2)CC1` (stereo not drawn) [Example 40, 6-carboxy-4-(6-chloronaphthalen-2-ylsulfonyl)-1-[1-(4-pyridyl)piperidin-4-ylmethyl]piperazin-2-one], the IC50 worked out at 7.4 nM.
Take `O=C1CN(S(=O)(=O)c2ccc3cc(Cl)ccc3c2)CC(C=NO)N1CC1CCN(c2ccncc2)CC1` (stereo not drawn) [Example 47, 6-aldoximyl-4-(6-chloronaphthalen-2-ylsulfonyl)-1-[1-(4-pyridyl)piperidin-4-ylmethyl]piperazin-2-one]: the half-maximal inhibitory concentration (IC50) is 13 nM.
In the case of `CCOC(=O)[C@@H]1CN(S(=O)(=O)c2ccc3cc(Cl)ccc3c2)CC(=O)N1CC1CCN(c2ccncc2)CC1` [Example 61, (S)-4-(6-chloronaphthalen-2-ylsulfonyl)-6-ethoxycarbonyl-1-[1-(4-pyridyl)piperidin-4-ylmethyl]piperazin-2-one], half-maximal inhibition (IC50) required 70 nM.
Take `NC(=O)C1CN(S(=O)(=O)c2ccc3cc(Cl)ccc3c2)CC(=O)N1CC1CCN(c2ccncc2)CC1` (stereo not drawn) [Example 46]: the IC50 stood at 17 nM.
`CCOC(=O)[C@H]1CN(S(=O)(=O)c2ccc3cc(Cl)ccc3c2)CC(=O)N1CC1CCN(c2ccncc2)CC1` [Example 60, (R)-4-(6-chloronaphthalen-2-ylsulfonyl)-6-ethoxycarbonyl-1-[1-(4-pyridyl)piperidin-4-ylmethyl]piperazin-2-one] registered an IC50 of 16 nM.
With `CN(C)CC1CN(S(=O)(=O)c2ccc3cc(Cl)ccc3c2)CC(=O)N1CC1CCN(c2ccncc2)CC1` (stereo not drawn) [Example 54, 4-(6-chloronaphthalen-2-ylsulfonyl)-6-dimethylaminomethyl-1-[1-(4-pyridyl)piperidin-4-ylmethyl]piperazin-2-one], the IC50 came to 8.5 nM.
The compound `O=C(C1CCN(c2ccncc2)CC1)N1CCN(S(=O)(=O)/C=C/c2ccc(Cl)cc2)CC1` [Control, 1-((E)-4-chlorostyrylsulfonyl)-4-[1-(4-pyridyl)piperidin-4-ylcarbonyl]piperazine, reference compound] returned an IC50 of 150 nM.

The next test deals with rat plasma. The experiment in a line: Measuring extrinsic coagulation time (PT) in vitro in rat plasma. The note with it: 37°C 3 minutes, thromboplastin reagent, concentration required to double the coagulation time. As to the method: The compounds synthesized in the Examples of the present invention had FXa inhibitory activities at least equal to that of the control compound. 2) Measurement of Anticoagulation Activity (in vitro) a) Measuring extrinsic coagulation time Thromboplastin time (PT) is measured in the presence of test compounds diluted at various concentrations. A test compound diluted with DMSO at various concentrations is mixed with rat plasma and incubated at 37°C for 3 minutes. Then, a thromboplastin reagent is added and the coagulation time is measured. The anticoagulation activity of the test compound is indicated in terms of the concentration required to double the coagulation time for the case where no test compound is added. […]
As for `CCOC(=O)C1CN(S(=O)(=O)c2ccc3cc(Cl)ccc3c2)CC(=O)N1CC1CCN(c2ccncc2)CC1` (stereo not drawn) [Example 39, 4-(6-chloronaphthalen-2-ylsulfonyl)-6-ethoxycarbonyl-1-[1-(4-pyridyl)piperidin-4-ylmethyl]piperazin-2-one], the “PT Doubling Concentration” value worked out at 2.8 µM.
With `O=C(O)C1CN(S(=O)(=O)c2ccc3cc(Cl)ccc3c2)CC(=O)N1CC1CCN(c2ccncc2)CC1` (stereo not drawn) [Example 40, 6-carboxy-4-(6-chloronaphthalen-2-ylsulfonyl)-1-[1-(4-pyridyl)piperidin-4-ylmethyl]piperazin-2-one], the “PT Doubling Concentration” value came to 2.7 µM.
